Reference: US20220273702A1, “HYDROGEN SULFIDE AND NITRIC OXIDE THERAPY FOR COVID-19 INFECTION” (Board of Supervisors of Louisiana State University and …, priority 2021, published 2022)

Legend:
sulfide = assay: Single COVID-19 case study: plasma sulfide (monobromobimane method); type: in vivo, human; details: single COVID-19 subject, 14 days post-treatment
C-reactive protein (CRP) = assay: Single COVID-19 case study: CRP levels; details: single COVID-19 subject, following remdesivir for 5 days; 1.35 and 1.77 mg/dL during infection; normal range 0.3-1.0 mg/dL
Total NO = assay: Single COVID-19 case study: plasma total NO (ozone-based chemiluminescence); details: single COVID-19 subject, 280 nM during infection, 400 nM baseline
CSE = type: cell-based
p-eNOS = type: cell-based

CCC(CC)COC(=O)[C@H](C)N[P@](=O)(OC[C@H]1O[C@@](C#N)(c2ccc3c(N)ncnn23)[C@H](O)[C@@H]1O)Oc1ccccc1 [remdesivir]
sulfide level (sulfide): 1.447 µM | CRP level (C-reactive protein (CRP)): 0.78 mg/dL | Total NO level (Total NO; 5 days post-treatment): 200 nM | Total NO level (Total NO; 14 days post-treatment): 280 nM

C=CCSSSCC=C [DATS, diallyl trisulfide]
restoration of CSE protein expression (CSE): two-fold | restoration of p-eNOS protein expression (p-eNOS): two-fold
